# Target: T1, human CGRP receptor (Homo sapiens, UniProt O60894+Q16602)
# T1 construct: SK-N-MC neuroblastoma cells (ATCC® HTB-10™) that endogenously express the hCGRP receptor; host or cells: SK-N-MC neuroblastoma cells
# Assay: Inhibition of cAMP production by CGRP receptor antagonists in SK-N-MC cells (HTRF)
# Assay type: cell-based
# Conditions: SK-N-MC neuroblastoma cells, human CGRP 0.8 nM as agonist, Kb estimated as agonist-corrected IC50, mean ± SEM; read-out: Kb hCGRP
# Excerpt: Inhibition of cAMP Production by CGRP Receptor Antagonists
# The hCGRP (human calcitonin gene-related peptide) receptor is functionally coupled to the Gαs proteins. Stimulation of hCGRP results in an increased synthesis of intracellular cAMP and can be blocked by the addition of receptor antagonists. Receptor activity is thus a reflection of the amount of cAMP present within cells which can be detected using standard in vitro technology.
# Cultured SK-N-MC neuroblastoma cells (ATCC® HTB-10™) that endogenously express the hCGRP receptor are grown in Eagle's Minimum essential medium (HYCLONE™) supplemented with 10% heat-inactivated Fetal bovine serum (FBS; GIBCO®), Non-Essential Amino Acids (GIBCO®), 1 mM sodium pyruvate, 2 mM L-glutamine, 100 U/mL of penicillin, and 10 μg/mL of streptomycin to about 70% confluency. After providing fresh medium, the cells are incubated at 37° C. overnight. On the day of the assay, cells are detached using ACCUTASE® (MP Biomedicals), resuspended in assay buffer [Hank's Balanced Salt Solution/Dulbecco's phosphate-buffered saline with […] each of CaCl2 and MgCl2 mixed 1:2, 3.3 mM 4-(2-hydroxyethyl)-1-piperazineethanesulfonic acid, 0.03% bovine serum albumin, and 0.5 mM 1-methyl-3-isobutylxanthine (as inhibitor of […])], and seeded 3-5K/well into 384-well, poly-D-lysine coated white plates (BD Biosciences).
# For dose-response studies, compounds are serially diluted 1:3 in dimethyl sulfoxide and then 1:10 into assay buffer. Human CGRP (0.8 nM; Bachem) as a receptor-specific agonist for the hCGRP receptor is mixed with diluted compound and added to the cells as the challenge stimulant at their EC80 concentrations.
# The amount of intracellular cAMP is quantitated using HTRF technology (Cisbio) as per vendor instructions. Briefly, cAMP-d2 conjugate and anti-cAMP-cryptate conjugate in lysis buffer are incubated with the treated cells at room temperature for 90 min. The HTRF signal is immediately detected using an ENVISION® plate reader (Perkin-Elmer) to calculate the ratio of fluorescence at […]. The raw data are converted to cAMP amount (pmole/well) using a cAMP standard curve generated for each experiment. Relative EC50 values are calculated from the top-bottom range of the concentration response curve using a four-parameter logistic curve fitting program (ACTIVITYBASE® v5.3.1.22 or GENEDATA SCREENER® v12.0.4), and Kb values are estimated as agonist-corrected IC50 values using the equation: Kb=(IC50)/[1+([Agonist]/EC50)]. Estimated Kb values are reported as mean values±SEM, averaged from the number of runs (n).
# T1 sequence (Q16602 23-461): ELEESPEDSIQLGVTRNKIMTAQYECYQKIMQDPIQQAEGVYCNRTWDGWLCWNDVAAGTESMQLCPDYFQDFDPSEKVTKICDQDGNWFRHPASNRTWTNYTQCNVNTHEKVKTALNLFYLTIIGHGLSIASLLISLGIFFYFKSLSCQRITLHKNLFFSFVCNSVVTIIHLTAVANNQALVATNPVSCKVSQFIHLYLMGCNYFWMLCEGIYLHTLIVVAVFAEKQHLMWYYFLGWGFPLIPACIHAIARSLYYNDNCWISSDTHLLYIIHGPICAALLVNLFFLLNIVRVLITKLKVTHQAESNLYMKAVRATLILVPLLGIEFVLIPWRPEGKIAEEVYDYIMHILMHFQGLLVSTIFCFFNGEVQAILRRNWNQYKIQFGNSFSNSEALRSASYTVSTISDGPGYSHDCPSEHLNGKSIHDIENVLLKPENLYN
# T1 sequence (O60894 27-148): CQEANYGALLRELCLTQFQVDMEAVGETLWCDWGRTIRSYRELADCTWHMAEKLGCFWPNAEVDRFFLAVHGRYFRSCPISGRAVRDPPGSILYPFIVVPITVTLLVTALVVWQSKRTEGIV
row,Compound,Kb [nM]
1,"Cc1cc(CNC(=O)c2ccc([C@@H](C)[C@@]3(C)C(=O)Nc4ncccc43)cn2)cc(C)n1 [Example 1, N-[(2,6-dimethylpyridin-4-yl)methyl]-5-{(1R)-1-[(3R)-3-methyl-2-oxo-2,3-dihydro-1H-pyrrolo[2,3-b]pyridin-3-yl]ethyl}pyridine-2-carboxamide]",0.0465 ± 0.0097
2,"Cc1cc(CNC(=O)c2ccc([C@@H](C)[C@@]3(C)C(=O)Nc4ncccc43)cc2)cc(C)n1 [Example 2, N-[(2,6-dimethyl-4-pyridyl)methyl]-4-[(1R)-1-[(3R)-3-methyl-2-oxo-1H-pyrrolo[2,3-b]pyridin-3-yl]ethyl]benzamide]",0.0366 ± 0.0154
3,"CCc1cc(CNC(=O)c2ccc([C@@H](C)[C@@]3(C)C(=O)Nc4ncccc43)cc2)cc(C)n1 [Example 3, N-[(2-ethyl-6-methylpyridin-4-yl)methyl]-4-{(1R)-1-[(3R)-3-methyl-2-oxo-2,3-dihydro-1H-pyrrolo[2,3-b]pyridin-3-yl]ethyl}benzamide]",0.0173
4,"Cc1cc(CNC(=O)c2ccc([C@@H](C)[C@@]3(C)C(=O)Nc4ncccc43)cc2)cc(C2CC2)n1 [Example 4, N-[(2-cyclopropyl-6-methyl-4-pyridyl)methyl]-4-[(1R)-1-[(3R)-3-methyl-2-oxo-1H-pyrrolo[2,3-b]pyridin-3-yl]ethyl]benzamide]",0.0266
5,"Cc1cc(CNC(=O)c2ccc([C@@H](C)[C@@]3(C)C(=O)Nc4ncccc43)cc2)cc(C2CCC2)n1 [Example 5, N-[(2-cyclobutyl-6-methylpyridin-4-yl)methyl]-4-{(1R)-1-[(3R)-3-methyl-2-oxo-2,3-dihydro-1H-pyrrolo[2,3-b]pyridin-3-yl]ethyl}benzamide]",0.00696
6,"Cc1cc(CNC(=O)c2ccc([C@@H](C)[C@@]3(C)C(=O)Nc4ncccc43)cc2)cc(C2CCCC2)n1 [Example 6, N-[(2-cyclopentyl-6-methylpyridin-4-yl)methyl]-4-{(1R)-1-[(3R)-3-methyl-2-oxo-2,3-dihydro-1H-pyrrolo[2,3-b]pyridin-3-yl]ethyl}benzamide]",0.0182

# Second part, the compound after the results:
row,Kb [nM],Compound
1,0.0977 ± 0.00276,"Cc1cc(C)nc(CNC(=O)c2ccc([C@@H](C)[C@@]3(C)C(=O)Nc4ncncc43)cc2)c1 [Example 7, N-[(4,6-dimethylpyridin-2-yl)methyl]-4-{(1R)-1-[(5R)-5-methyl-6-oxo-6,7-dihydro-5H-pyrrolo[2,3-d]pyrimidin-5-yl]ethyl}benzamide]"
2,0.0245,"Cc1cc(CNC(=O)c2ccc([C@@H](C)[C@@]3(C)C(=O)Nc4ncccc43)cn2)cc(C2CC2)n1 [Example 9, N-[(2-cyclopropyl-6-methylpyridin-4-yl)methyl]-5-{(1R)-1-[(3R)-3-methyl-2-oxo-2,3-dihydro-1H-pyrrolo[2,3-b]pyridin-3-yl]ethyl}pyridine-2-carboxamide]"
3,0.198 ± 0.0459,"Cc1cc(CNC(=O)c2ccc([C@@H](C)[C@@]3(C)C(=O)Nc4ncncc43)cn2)cc(C)n1 [Example 10, N-[(2,6-dimethyl-4-pyridyl)methyl]-5-[(1R)-1-[(5R)-5-methyl-6-oxo-7H-pyrrolo[2,3-d]pyrimidin-5-yl]ethyl]pyridine-2-carboxamide]"
4,0.0404,"Cc1cc(C#N)nc(CNC(=O)c2ccc([C@@H](C)[C@@]3(C)C(=O)Nc4ncccc43)cc2)c1 [Example 11, N-[(6-cyano-4-methyl-2-pyridyl)methyl]-4-[(1R)-1-[(3R)-3-methyl-2-oxo-1H-pyrrolo[2,3-b]pyridin-3-yl]ethyl]benzamide]"
5,0.0428 ± 0.013,"Cc1cc(C)nc(CNC(=O)c2ccc([C@@H](C)[C@@]3(C)C(=O)Nc4ncccc43)cc2)c1 [Example 12, N-[(4,6-dimethylpyridin-2-yl)methyl]-4-{(1R)-1-[(3R)-3-methyl-2-oxo-2,3-dihydro-1H-pyrrolo[2,3-]pyridin-3-yl]ethyl}benzamide]"
6,0.0453 ± 0.00153,"CCc1cc(CNC(=O)c2ccc([C@@H](C)[C@@]3(C)C(=O)Nc4ncccc43)cn2)cc(C)n1 [Example 13, N-[(2-ethyl-6-methylpyridin-4-yl)methyl]-5-{(1R)-1-[(3R)-3-methyl-2-oxo-2,3-dihydro-1H-pyrrolo[2,3-b]pyridin-3-yl]ethyl}pyridine-2-carboxamide]"
7,0.026,"Cc1cc(CNC(=O)c2ccc([C@@H](C)[C@@]3(C)C(=O)Nc4ncccc43)cc2)cc(C(C)C)n1 [Example 14, 4-{(1R)-1-[(3R)-3-methyl-2-oxo-2,3-dihydro-1H-pyrrolo[2,3-b]pyridin-3-yl]ethyl}-N-{[2-methyl-6-(propan-2-yl)pyridin-4-yl]methyl}benzamide]"
8,0.171 ± 0.0339,"Cc1cc(C)nc(CNC(=O)c2ccc([C@@H](C)[C@@]3(C)C(=O)Nc4ncccc43)cn2)c1 [Example 15, N-[(4,6-dimethylpyridin-2-yl)methyl]-5-{(1R)-1-[(3R)-3-methyl-2-oxo-2,3-dihydro-1H-pyrrolo[2,3-b]pyridin-3-yl]ethyl}pyridine-2-carboxamide]"
9,0.813,"Cc1cc(CNC(=O)c2ccc([C@@H](C)[C@@]3(C)C(=O)Nc4ncccc43)cc2)cc(C#N)n1 [Example 16, N-[(2-cyano-6-methylpyridin-4-yl)methyl]-4-{(1R)-1-[(3R)-3-methyl-2-oxo-2,3-dihydro-1H-pyrrolo[2,3-b]pyridin-3-yl]ethyl}benzamide]"

# System: CGRP receptor
# Assay: Capsaicin-induced dermal blood flow (laser Doppler imaging) in non-human primates
# Assay type: in vivo
# Conditions: 3 mg/kg orally, 90 min prior to capsaicin, cynomolgus NHP, compared to vehicle, p<0.008
# Excerpt: Capsaicin-induced dermal blood flow (DBF) is used as a target engagement biomarker to assess CGRP receptor activity in nonhuman primates (NHPs). Methods are adapted from earlier published procedures [Hershey et al., Regulatory Peptides, Volume 127, Issue 1-3, pp. 71-77, 2005].
# Animal studies may be performed under protocols approved by the Covance Institutional Animal Care and Use Committee. Cynomolgus NHPs may be used given the close homology between NHP and human CGRP receptor. The study population may include healthy, CGRP antagonist naive cynomolgus NHP males weighing ˜3-4 kg.
# Cynomolgus NHPs are enrolled in the study based on prescreening for capsaicin responsiveness. […] NHPs are used in a cross over design in which all NHPs received all doses after a two week wash-out period. Total n=10 NHPs per group.
# NHPs each receive vehicle, 3, 10 and 30 mg/kg of the CGRP receptor antagonist Example 1 administered orally (10% Acacia w/v/0.05% Antifoam 1510-US emulsion v/v/in purified water) 90 min prior to the capsaicin administration in the laser Doppler imaging (LDI) experiment.
# Animals are fasted overnight prior to each capsaicin challenge. On the day of the experiment, the NHPs are anesthetized with 1% Isoflurane for approximately 30 min prior to scanning. The NHPs are placed in a quiet, temperature-controlled room supine on a warm small surgical blanket and the shaved arm is placed on a heating pad under the laser head. Three neoprene O-rings (size=8 mm ID) are placed on the NHP forearm, approximately 1 cm apart. During a 30-minute stabilization period, preliminary scans are obtained to confirm correct positioning of the O-rings. […]
# LDI repeat scans are analyzed using Moor software v.5.3 (Moor Instruments, Wilmington, Del.) by region of interest signal analysis, and Microsoft Excel worksheets are used for averaging the signal from the regions of interest at a given time point. […] Analyzed data is entered into Graphpad PRISM® 4.0 for graphing and a repeated measurement mixed-effect model in SAS® 9.1 is used for statistical analysis. Data is expressed as mean+/−SEM.
row,Compound,group mean inhibition of capsaicin-induced dermal blood flow increase [%]
1,"Cc1cc(CNC(=O)c2ccc([C@@H](C)[C@@]3(C)C(=O)Nc4ncccc43)cn2)cc(C)n1 [Example 1, N-[(2,6-dimethylpyridin-4-yl)methyl]-5-{(1R)-1-[(3R)-3-methyl-2-oxo-2,3-dihydro-1H-pyrrolo[2,3-b]pyridin-3-yl]ethyl}pyridine-2-carboxamide]",32.1

# Same assay, conditions: 10 mg/kg orally, 90 min prior to capsaicin, cynomolgus NHP, compared to vehicle, p<0.0004
row,Compound,group mean inhibition of capsaicin-induced dermal blood flow increase [%]
1,"Cc1cc(CNC(=O)c2ccc([C@@H](C)[C@@]3(C)C(=O)Nc4ncccc43)cn2)cc(C)n1 [Example 1, N-[(2,6-dimethylpyridin-4-yl)methyl]-5-{(1R)-1-[(3R)-3-methyl-2-oxo-2,3-dihydro-1H-pyrrolo[2,3-b]pyridin-3-yl]ethyl}pyridine-2-carboxamide]",46.1

# Same assay, conditions: 30 mg/kg orally, 90 min prior to capsaicin, cynomolgus NHP, compared to vehicle, p<0.00002
row,Compound,group mean inhibition of capsaicin-induced dermal blood flow increase [%]
1,"Cc1cc(CNC(=O)c2ccc([C@@H](C)[C@@]3(C)C(=O)Nc4ncccc43)cn2)cc(C)n1 [Example 1, N-[(2,6-dimethylpyridin-4-yl)methyl]-5-{(1R)-1-[(3R)-3-methyl-2-oxo-2,3-dihydro-1H-pyrrolo[2,3-b]pyridin-3-yl]ethyl}pyridine-2-carboxamide]",58.8

# From patent US9637495B2, “CGRP receptor antagonists” (Eli Lilly and Company, priority 2015, dated 2017)
